In ChEMBL document CHEMBL6153122, “Antimycobacterial Activities of the Zanthoxylum leprieurii Metabolite Adubangoamide and Non-Natural Fagaramide Analogues” (2025):
≈ marks a conversion by molar mass, not a printed value.

Assays:
[1] = system: Mycobacterium tuberculosis; assay: Antimycobacterial activity against multidrug-resistant Mycobacterium tuberculosis 375 by microplate Alamar blue assay; format: functional
[2] = system: Mycobacterium tuberculosis; assay: Antimycobacterial activity against multidrug-resistant Mycobacterium tuberculosis 375; format: functional

Row | SMILES | MIC [1] [µM] | MIC [2] [µM]
1 | O=C(/C=C/c1ccc2c(c1)OCO2)NCc1ccccc1 | 667 (≈ 188 µg/mL) | –
2 | CN(C)c1ccc(CNC(=O)/C=C/c2ccc3c(c2)OCO3)cc1 | 3560 (≈ 1150 µg/mL) | –
3 | CC(C)=CCOc1ccc(/C=C/C(=O)NCC(C)C)cc1 | 1200 (≈ 345 µg/mL) | –
4 | O=C(/C=C/c1ccc2c(c1)OCO2)NCc1ccc(N2CCC(C(F)(F)F)CC2)cc1 | 2310 (≈ 1000 µg/mL) | –
5 | O=C(/C=C/c1ccc2c(c1)OCO2)NCc1ccccc1Cl | 792 (≈ 250 µg/mL) | –
6 | O=C(/C=C/c1ccc2c(c1)OCO2)NCc1ccc(C(F)(F)F)cc1F | 1020 (≈ 375 µg/mL) | –
7 | O=C(/C=C/c1ccc2c(c1)OCO2)NCc1cc(F)cc(F)c1 | 788 (≈ 250 µg/mL) | –
8 | O=C(/C=C/c1ccc2c(c1)OCO2)NCc1ccc(N2CCC(c3ccc(F)cc3)CC2)cc1 | 545 (≈ 250 µg/mL) | –
9 | COc1cccc(CNC(=O)/C=C/c2ccc3c(c2)OCO3)c1 | 803 (≈ 250 µg/mL) | –
10 | CC(C)CNC(=O)/C=C/c1ccc2c(c1)OCO2 [FOGARAMIDE] | – | 1010 (≈ 250 µg/mL)
